Source: patent US20170001990A1 (Genentech, Inc., priority 2014, published 2017)

Target: Human recombinant carboxy-terminal his-tagged LDHA (amino acids 2-332) (Homo sapiens, UniProt P00338)
Experiment: LDHA enzyme inhibition assay (NADH fluorescence)
Conditions: LDHA IC50 (μM), 1 nM LDHA, NADH and pyruvate, stereochemistry of tested sample given
Experimental: Test compounds were diluted in 100% DMSO with 1:3 serial dilutions. […] For the enzyme reaction, serially diluted compounds were added to a mixture of enzyme and NADH. […] Following the baseline read, pyruvate was added to the assay plates and the plates were read with excitation 340 nm and emission 480 nm for 10 minutes every 2.5 seconds. A suitable linear timeframe was selected (150-400 s) to calculate the slope of each concentration tested. The raw data were fitted to 4-parameter dose-response curves using the following equation:
fit=(A+((B−A)/(1+((C/x)̂D))))
inv=(C/((((B−A)/(y−A))−)̂(1/D)))
res=(y−fit) • where A=minimum y, B=maximum y, C=50% y max, and D=slope factor.
The curve bottom was set to the background rate (initial 5 second recording prior to addition of pyruvate) and curve top was set to no inhibitor (DMSO only) control wells rate.
The compounds of the present invention were tested for their capacity to inhibit LDHA activity and activation as described in the enzyme inhibition assay described above.

SMILES | IC50
O=C1CC(c2ccsc2)(c2cccc(Oc3cccc(C(F)(F)F)c3)n2)NC(=O)C1Sc1ccccc1Cl (centres unmarked) [Example 169, 3-(2-chlorophenyl)sulfanyl-6-(3-thienyl)-6-[6-[3-(trifluoromethyl)phenoxy]-2-pyridyl]piperidine-2,4-dione] | 0.01 µM
O=C1CC(c2ccsc2)(c2cccc(NCCC3CC3)n2)NC(=O)C1Sc1ccccc1Cl (centres unmarked) [Example 173, 3-(2-chlorophenyl)sulfanyl-6-[6-(2-cyclopropyl-ethylamino)-2-pyridyl]-6-(3-thienyl)piperidine-2,4-dione] | 0.183 µM
O=C1CC(c2ccsc2)(c2cccc(NCCC3CC3)n2)NC(=O)C1Sc1ccccc1Cl (centres unmarked) [Example 174, 3-(2-chlorophenyl)sulfanyl-6-[6-(2-cyclopropyl-ethylamino)-2-pyridyl]-6-(3-thienyl)piperidine-2,4-dione] | 0.068 µM
O=C1CC(c2ccsc2)(c2cccc(Oc3ccc(Cl)cc3)n2)NC(=O)C1Sc1ccccc1Cl (centres unmarked) [Example 175, 6-[6-(4-chlorophenoxy)-2-pyridyl]-3-(2-chlorophenyl) sulfanyl-6-(3-thienyl) piperidine-2,4-dione] | 0.013 µM
O=C1CC(c2ccsc2)(c2cccc(N3CCc4ccc(CO)cc43)n2)NC(=O)C1Sc1ccccc1Cl (centres unmarked) [Example 177, 3-(2-chlorophenyl)sulfanyl-6-[6-[6-(hydroxymethyl)indolin-1-yl]-2-pyridyl]-6-(3-thienyl)piperidine-2,4-dione] | 0.016 µM
CC(COc1cccc(C2(c3ccsc3)CC(=O)C(Sc3ccccc3Cl)C(=O)N2)n1)C1CC1 (centres unmarked) [Example 179, 3-((2-chlorophenyl)thio)-6-(6-(2-cyclopropyl-propoxy)pyridin-2-yl)-6-(thiophen-3-yl)piperidine-2,4-dione] | 0.014 µM
CC1CC1COc1cccc(C2(c3ccsc3)CC(=O)C(Sc3ccccc3Cl)C(=O)N2)n1 (centres unmarked) [Example 183, 3-(2-chlorophenyl)sulfanyl-6-[6-[(2-methylcyclo-propyl)methoxy]-2-pyridyl]-6-(3-thienyl)piperidine-2,4-dione] | 0.005 µM
O=C1CC(c2ccsc2)(c2cccc(OCc3ccncc3)n2)NC(=O)C1Sc1ccccc1Cl (centres unmarked) [Example 186, 3-(2-chlorophenyl)sulfanyl-6-[6-(4-pyridylmethoxy)-2-pyridyl]-6-(3-thienyl) piperidine-2,4-dione] | 0.021 µM
CCC(C)COc1cccc(C2(c3ccsc3)CC(=O)C(Sc3ccccc3Cl)C(=O)N2)n1 (centres unmarked) [Example 188, 3-(2-chlorophenyl)sulfanyl-6-[6-(2-methylbutoxy)-2-pyridyl]-6-(3-thienyl) piperidine-2,4-dione] | 0.015 µM
O=C1CC(c2ccsc2)(c2cccc(OCCN3CCCC3=O)n2)NC(=O)C1Sc1ccccc1Cl (centres unmarked) [Example 189, 3-(2-chlorophenyl)sulfanyl-6-[6-[2-(2-oxopyrrolidin-1-yl)ethoxy]-2-pyridyl]-6-(3-thienyl)piperidine-2,4-dione] | 0.15 µM
CC1(C)OCC(CCOc2cccc(C3(c4ccsc4)CC(=O)C(Sc4ccccc4Cl)C(=O)N3)n2)O1 (centres unmarked) [Example 190, 3-(2-chlorophenyl)sulfanyl-6-[6-[2-(2,2-dimethyl-1,3-dioxolan-4-yl)ethoxy]-2-pyridyl]-6-(3-thienyl) piperidine-2,4-dione] | 0.092 µM
CC1(C)OCC(CCOc2cccc(C3(c4ccsc4)CC(=O)C(Sc4ccccc4Cl)C(=O)N3)n2)O1 (centres unmarked) [Example 191, 3-(2-chlorophenyl)sulfanyl-6-[6-[2-(2,2-dimethyl-1,3-dioxolan-4-yl)ethoxy]-2-pyridyl]-6-(3-thienyl) piperidine-2,4-dione] | 0.158 µM
CCC(C)COc1cccc(C2(c3ccsc3)CC(=O)C(Sc3ccccc3Cl)C(=O)N2)n1 (centres unmarked) [Example 210, 3-(2-chlorophenyl)sulfanyl-6-[6-(2-methylbutoxy)-2-pyridyl]-6-(3-thienyl) piperidine-2,4-dione] | 0.008 µM
CC1(C)OCC(CCOc2cccc(C3(c4ccsc4)CC(=O)C(Sc4ccccc4Cl)C(=O)N3)n2)O1 (centres unmarked) [Example 211, 3-(2-chlorophenyl)sulfanyl-6-[6-[2-(2,2-dimethyl-1,3-dioxolan-4-yl)ethoxy]-2-pyridyl]-6-(3-thienyl) piperidine-2,4-dione] | 0.183 µM
O=C1CC(c2ccsc2)(c2cccc(Oc3ccc(F)c(F)c3)n2)NC(=O)C1Oc1ccccc1Cl (centres unmarked) [Example 217, 3-(2-chlorophenoxy)-6-[6-(3,4-difluorophenoxy)-2-pyridyl]-6-(3-thienyl) piperidine-2,4-dione] | 0.01 µM
O=C1CC(c2ccsc2)(c2cccc(NCCC3CCCCC3)n2)NC(=O)C1Sc1ccccc1Cl (centres unmarked) [Example 220, 3-(2-chlorophenyl)sulfanyl-6-[6-(2-cyclohexyl-ethylamino)-2-pyridyl]-6-(3-thienyl)piperidine-2,4-dione] | 0.162 µM
O=C1CC(c2ccsc2)(c2cccc(OC3CCC3)n2)NC(=O)C1Sc1ccccc1Cl (centres unmarked) [Example 222, 3-(2-chlorophenyl)sulfanyl-6-[6-(cyclobutoxy)-2-pyridyl]-6-(3-thienyl) piperidine-2,4-dione] | 0.322 µM
O=C1CC(c2ccsc2)(c2cccc(OCC3CCC3)n2)NC(=O)C1Sc1ccccc1Cl (centres unmarked) [Example 224, 3-(2-chlorophenyl)sulfanyl-6-[6-(cyclobutylmethoxy)-2-pyridyl]-6-(3-thienyl) piperidine-2,4-dione] | 0.02 µM

SMILES | IC50
CC(C)(C)COc1cccc(C2(c3ccsc3)CC(=O)C(Sc3ccccc3Cl)C(=O)N2)n1 (centres unmarked) [Example 226, 3-(2-chlorophenyl)sulfanyl-6-[6-(2,2-dimethylpropoxy)-2-pyridyl]-6-(3-thienyl) piperidine-2,4-dione] | 0.02 µM
Cn1ccnc1COc1cccc(C2(c3ccsc3)CC(=O)C(Sc3ccccc3Cl)C(=O)N2)n1 (centres unmarked) [Example 229, 3-(2-chlorophenyl)sulfanyl-6-[6-[(1-methylimidazol-2-yl)methoxy]-2-pyridyl]-6-(3-thienyl)piperidine-2,4-dione] | 0.011 µM
CC(C)(C)OCCOc1cccc(C2(c3ccsc3)CC(=O)C(Sc3ccccc3Cl)C(=O)N2)n1 (centres unmarked) [Example 230, 6-[6-(2-tert-butoxyethoxy)-2-pyridyl]-3-(2-chloro-phenyl)sulfanyl-6-(3-thienyl)piperidine-2,4-dione] | 0.022 µM
CC(Oc1cccc(C2(c3ccsc3)CC(=O)C(Sc3ccccc3Cl)C(=O)N2)n1)C(F)(F)F (centres unmarked) [Example 231, 3-(2-chlorophenyl)sulfanyl-6-(3-thienyl)-6-[6-(2,2,2-trifluoro-1-methyl-ethoxy)-2-pyridyl]piperidine-2,4-dione] | 0.009 µM
O=C1CC(c2ccsc2)(c2cccc(N3CC(C4CCOCC4)C3)n2)NC(=O)C1Sc1ccccc1Cl (centres unmarked) [Example 232, 3-(2-chlorophenyl)sulfanyl-6-[6-(3-tetrahydropyran-4-ylazetidin-1-yl)-2-pyridyl]-6-(3-thienyl) piperidine-2,4-dione] | 0.009 µM
O=C1CC(c2ccsc2)(c2cccc(N3CC(C4CCOCC4)C3)n2)NC(=O)C1Sc1ccccc1Cl (centres unmarked) [Example 240, 3-(2-chlorophenyl)sulfanyl-6-[6-(3-tetrahydropyran-4-ylazetidin-1-yl)-2-pyridyl]-6-(3-thienyl) piperidine-2,4-dione] | 0.003 µM
O=C(NCC1CC1)c1cccc(C2(c3ccsc3)CC(=O)C(Sc3ccccc3Cl)C(=O)N2)n1 (centres unmarked) [Example 242, 6-[5-(2-chlorophenyl)sulfanyl-4,6-dioxo-2-(3-thienyl)-2-piperidyl]-N-(cyclopropylmethyl) pyridine-2-carboxamide] | 0.004 µM
COCC(C)Oc1cccc(C2(c3ccsc3)CC(=O)C(Sc3ccccc3Cl)C(=O)N2)n1 (centres unmarked) [Example 246, 3-(2-chlorophenyl)sulfanyl-6-[6-(2-methoxy-1-methyl-ethoxy)-2-pyridyl]-6-(3-thienyl)piperidine-2,4-dione] | 0.01 µM
CCOCC(C)Oc1cccc(C2(c3ccsc3)CC(=O)C(Sc3ccccc3Cl)C(=O)N2)n1 (centres unmarked) [Example 247, 3-((2-chlorophenyl)thio)-6-(6-((1-ethoxypropan-2-yl)oxy)pyridin-2-yl)-6-(thiophen-3-yl)piperidine-2,4-dione] | 0.01 µM
CCC1(COc2cccc([C@@]3(c4ccsc4)CC(=O)C(Sc4ccccc4Cl)C(=O)N3)n2)COC1 (some centres unmarked) [Example 248] | 0.005 µM
COC(C)(C)CCOc1cccc(C2(c3ccsc3)CC(=O)C(Sc3ccccc3Cl)C(=O)N2)n1 (centres unmarked) [Example 249, 3-(2-chlorophenyl)sulfanyl-6-[6-(3-methoxy-3-methyl-butoxy)-2-pyridyl]-6-(3-thienyl)piperidine-2,4-dione] | 0.099 µM
CC/C=C/COc1cccc(C2(c3ccsc3)CC(=O)C(Sc3ccccc3Cl)C(=O)N2)n1 (centres unmarked) [Example 250, 3-(2-chlorophenyl)sulfanyl-6-(6-pent-2-enoxy-2-pyridyl)-6-(3-thienyl) piperidine-2,4-dione] | 0.036 µM
O=C1CC(c2ccsc2)(c2cccc(OCC3CCC(CO)CC3)n2)NC(=O)C1Sc1ccccc1Cl (centres unmarked) [Example 253] | 0.081 µM
COc1cc(-c2cccc(C3(c4ccsc4)CC(=O)C(Sc4ccccc4Cl)C(=O)N3)n2)ccc1F (centres unmarked) [Example 255, 3-((2-chlorophenyl)thio)-6-(6-(4-fluoro-3-methoxy-phenyl)pyridin-2-yl)-6-(thiophen-3-yl)piperidine-2,4-dione] | 0.102 µM
O=C1CC(c2ccsc2)(c2cccc(Cc3ccc(F)cc3)n2)NC(=O)C1Sc1ccccc1Cl (centres unmarked) [Example 257, 3-((2--chlorophenyl)thio)-6-(6-(4-fluorobenzyl)pyridin-2-yl)-6-(thiophen-3-yl)piperidine-2,4-dione] | 0.016 µM
O=C1CC(c2ccsc2)(c2cccc(Cc3ccc(F)cc3F)n2)NC(=O)C1Sc1ccccc1Cl (centres unmarked) [Example 258, 3-((2-chlorophenyl)thio)-6-(6-(2,4-difluorobenzyl)pyridin-2-yl)-6-(thiophen-3-yl)piperidine-2,4-dione] | 0.087 µM
COc1cc(Cc2cccc(C3(c4ccsc4)CC(=O)C(Sc4ccccc4Cl)C(=O)N3)n2)ccc1F (centres unmarked) [Example 259, 3-((2-chlorophenyl)thio)-6-(6-(4-fluoro-3-methoxy-benzyl)pyridin-2-yl)-6-(thiophen-3-yl)piperidine-2,4-dione] | 0.011 µM
